In this experiment the test system is MV-4-11 cells. The experiment is described as follows: Gene expression microarray analysis (Affymetrix PrimeView) and GSEA. Format: cell-based, human. Also on record: RFU PODN (11730768_x_at) / Fold change /veh PODN (11730768_x_at) / RFU LINC00158 (11744669_a_at) / Fold change /veh LINC00158 (11744669_a_at) / RFU DUSP10 (11751237_a_at) / Fold change /veh DUSP10 (11751237_a_at) / RFU ID3 (11757404_x_at) / Fold change /veh ID3 (11757404_x_at) / RFU PLEKHG5 (11737974_s_at) / Fold change /veh PLEKHG5 (11737974_s_at) / RFU LRRC4B (11730491_at) / Fold change /veh LRRC4B (11730491_at) / RFU GIMAP4 (11747438_a_at) / Fold change /veh GIMAP4 (11747438_a_at) / RFU KRT8 (11758183_x_at) / Fold change /veh KRT8 (11758183_x_at) / RFU CNN1 (11734310_a_at) / Fold change /veh CNN1 (11734310_a_at) / RFU VPS37D (11726825_at) / Fold change /veh VPS37D (11726825_at) / RFU C10orf10 (11716522_x_at) / Fold change /veh C10orf10 (11716522_x_at) / RFU KIR2DL2 /// KIR2DL4 /// KIR2DL5A /// KIR2DL5B /// KIR2DS1 /// KIR2DS2 /// KIR2DS3 /// KIR2DS4 /// KIR3DL3 /// KIR3DL3 /// KIR3DS1 (11738374_at) / Fold change /veh KIR2DL2 /// KIR2DL4 /// KIR2DL5A /// KIR2DL5B /// KIR2DS1 /// KIR2DS2 /// KIR2DS3 /// KIR2DS4 /// KIR3DL3 /// KIR3DL3 /// KIR3DS1 (11738374_at) / RFU C1QL1 (11718748_at) / Fold change /veh C1QL1 (11718748_at) / RFU TMPRSS4 (11747572_a_at) / Fold change /veh TMPRSS4 (11747572_a_at) / RFU HAMP (11756126_x_at) / Fold change /veh HAMP (11756126_x_at) / RFU RNFT2 (11725882_a_at) / Fold change /veh RNFT2 (11725882_a_at) / RFU NR4A2 (11747474_a_at) / Fold change /veh NR4A2 (11747474_a_at) / RFU ABCC12 (11746883_a_at) / Fold change /veh ABCC12 (11746883_a_at) / RFU TMEM136 (11760407_x_at) / Fold change /veh TMEM136 (11760407_x_at) / RFU CLDN22 /// WWC2 (11732394_at) / Fold change /veh CLDN22 /// WWC2 (11732394_at) / RFU HLA-DPB1 (11760878_x_at) / Fold change /veh HLA-DPB1 (11760878_x_at) / RFU SPINT1 (11716480_a_at) / Fold change /veh SPINT1 (11716480_a_at) / RFU GAP43 (11754022_s_at) / Fold change /veh GAP43 (11754022_s_at) / RFU A4GNT (11735810_at) / Fold change /veh A4GNT (11735810_at) / RFU PRB3 (11715151_x_at) / Fold change /veh PRB3 (11715151_x_at) / RFU TUBB4B (11761932_at) / Fold change /veh TUBB4B (11761932_at) / RFU CAPN14 (11732068_a_at) / Fold change /veh CAPN14 (11732068_a_at) / RFU TMCC2 (11721928_a_at) / Fold change /veh TMCC2 (11721928_a_at) / RFU IRGQ (11745062_a_at) / Fold change /veh IRGQ (11745062_a_at) / RFU FAM174B (11720279_a_at) / Fold change /veh FAM174B (11720279_a_at) / RFU TMPRSS4 (11748680_a_at) / Fold change /veh TMPRSS4 (11748680_a_at) / RFU FAM212B (11763350_a_at) / Fold change /veh FAM212B (11763350_a_at) / RFU PLEKHG5 (11743358_a_at) / Fold change /veh PLEKHG5 (11743358_a_at) / RFU ZSCAN30 (11745921_a_at) / Fold change /veh ZSCAN30 (11745921_a_at) / RFU CMKLR1 (11741424_a_at) / Fold change /veh CMKLR1 (11741424_a_at) / RFU LOC101060620 /// MAPK8IP1 (11723275_at) / Fold change /veh LOC101060620 /// MAPK8IP1 (11723275_at) / RFU SPTSSB (11747773_x_at) / Fold change /veh SPTSSB (11747773_x_at) / RFU PRSS12 (11739890_at) / Fold change /veh PRSS12 (11739890_at) / RFU BIN1 (11741810_x_at) / Fold change /veh BIN1 (11741810_x_at) / RFU WNT11 (11732464_a_at) / Fold change /veh WNT11 (11732464_a_at) / RFU C10orf10 (11716521_a_at) / Fold change /veh C10orf10 (11716521_a_at) / RFU C5orf56 (11738089_at) / Fold change /veh C5orf56 (11738089_at) / RFU CYB561 (11721691_x_at) / Fold change /veh CYB561 (11721691_x_at) / RFU ANKRD19P (11752326_a_at) / Fold change /veh ANKRD19P (11752326_a_at) / RFU OR2T12 /// OR2T33 /// OR2T8 (11738714_s_at) / Fold change /veh OR2T12 /// OR2T33 /// OR2T8 (11738714_s_at) / RFU VCAN (11748164_a_at) / Fold change /veh VCAN (11748164_a_at) / RFU JSRP1 (11732532_at) / Fold change /veh JSRP1 (11732532_at) / RFU KRTAP10-11 (11738290_x_at) / Fold change /veh KRTAP10-11 (11738290_x_at) / RFU MYO3A (11730013_a_at) / Fold change /veh MYO3A (11730013_a_at) / RFU EBF3 (11725865_a_at) / Fold change /veh EBF3 (11725865_a_at) / RFU CAMK2N1 (11719241_x_at) / Fold change /veh CAMK2N1 (11719241_x_at) / RFU C5orf56 (11738088_a_at) / Fold change /veh C5orf56 (11738088_a_at) / RFU OLFML3 (11715873_a_at) / Fold change /veh OLFML3 (11715873_a_at) / RFU LOC100653217 /// NTM (11731650_a_at) / Fold change /veh LOC100653217 /// NTM (11731650_a_at) / RFU MAPK11 (11762145_a_at) / Fold change /veh MAPK11 (11762145_a_at) / RFU FIZ1 (11724087_x_at) / Fold change /veh FIZ1 (11724087_x_at) / RFU OASL (11726364_x_at) / Fold change /veh OASL (11726364_x_at) / RFU SOX15 (11748057_x_at) / Fold change /veh SOX15 (11748057_x_at) / RFU CD79A (11719716_a_at) / Fold change /veh CD79A (11719716_a_at) / RFU HIST1H1D (11736915_at) / Fold change /veh HIST1H1D (11736915_at) / RFU CASKIN2 (11723855_a_at) / Fold change /veh CASKIN2 (11723855_a_at) / RFU LOC730098 (11760151_x_at) / Fold change /veh LOC730098 (11760151_x_at) / RFU OR4N2 (11742367_at) / Fold change /veh OR4N2 (11742367_at) / RFU PRRT2 (11749266_a_at) / Fold change /veh PRRT2 (11749266_a_at) / RFU SNX32 (11753110_a_at) / Fold change /veh SNX32 (11753110_a_at) / RFU CDHR5 (11726645_a_at) / Fold change /veh CDHR5 (11726645_a_at) / RFU RCAN1 (11760418_a_at) / Fold change /veh RCAN1 (11760418_a_at) / RFU FAM167A (11723789_a_at) / Fold change /veh FAM167A (11723789_a_at) / RFU FAM26E (11764081_at) / Fold change /veh FAM26E (11764081_at) / RFU ISYNA1 (11749810_s_at) / Fold change /veh ISYNA1 (11749810_s_at) / RFU ACY1 (11761880_at) / Fold change /veh ACY1 (11761880_at) / RFU 11764098_at / Fold change /veh 11764098_at / RFU SAMD14 (11745864_x_at) / Fold change /veh SAMD14 (11745864_x_at) / RFU NPB (11741838_a_at) / Fold change /veh NPB (11741838_a_at) / RFU TMPRSS6 (11731388_a_at) / Fold change /veh TMPRSS6 (11731388_a_at) / RFU KRTAP10-2 (11738614_at) / Fold change /veh KRTAP10-2 (11738614_at) / RFU ARHGAP8 /// PRR5-ARHGAP8 (11727945_x_at) / Fold change /veh ARHGAP8 /// PRR5-ARHGAP8 (11727945_x_at) / RFU KRTAP5-7 /// NADSYN1 (11734609_at) / Fold change /veh KRTAP5-7 /// NADSYN1 (11734609_at) / RFU RASL12 (11751679_a_at) / Fold change /veh RASL12 (11751679_a_at) / RFU CDKN2B (11736163_a_at) / Fold change /veh CDKN2B (11736163_a_at) / RFU PRF1 (11729649_at) / Fold change /veh PRF1 (11729649_at) / RFU, ZNF638 /// ZNF638-IT1 / Fold change vs veh, ZNF638 /// ZNF638-IT1 / RFU, PANK3 / Fold change vs veh, PANK3 / RFU, SH3YL1 / Fold change vs veh, SH3YL1 / RFU, ZEB2 / Fold change vs veh, ZEB2 / RFU, NRIP1 / Fold change vs veh, NRIP1 / RFU, PTTG1IP / Fold change vs veh, PTTG1IP / RFU, CAPN2 / Fold change vs veh, CAPN2 / RFU, MED14 / Fold change vs veh, MED14 / RFU, SNORA58 / Fold change vs veh, SNORA58 / RFU, C1orf63 / Fold change vs veh, C1orf63 / RFU, LRRFIP1 / Fold change vs veh, LRRFIP1 / RFU, NDUFAF7 / Fold change vs veh, NDUFAF7 / RFU, SLC12A2 / Fold change vs veh, SLC12A2 / RFU, IBTK / Fold change vs veh, IBTK / RFU, ESF1 / Fold change vs veh, ESF1 / Fold change vs veh, TMEM50B / RFU, TAOK1 / Fold change vs veh, TAOK1 / RFU, ACBD3 / Fold change vs veh, ACBD3 / RFU, TMA16 / Fold change vs veh, TMA16 / RFU, RWDD3 / Fold change vs veh, RWDD3 / RFU, BCAT1 / Fold change vs veh, BCAT1 / RFU, EDEM3 / Fold change vs veh, EDEM3 / RFU, TMEM33 / Fold change vs veh, TMEM33 / RFU, WDR75 / Fold change vs veh, WDR75 / RFU, AHCTF1 / Fold change vs veh, AHCTF1 / RFU, TFRC / Fold change vs veh, TFRC / RFU, ZDHHC17 / Fold change vs veh, ZDHHC17 / RFU, NOM1 / Fold change vs veh, NOM1 / RFU, ARL8B / Fold change vs veh, ARL8B / RFU, ZBTB11 / Fold change vs veh, ZBTB11 / RFU, TAMM41 / Fold change vs veh, TAMM41 / RFU, KIAA1704 /// LOC100996395 / Fold change vs veh, KIAA1704 /// LOC100996395 / RFU, ING1 / Fold change vs veh, ING1 / RFU, TRMT61B / Fold change vs veh, TRMT61B / RFU, FUBP3 / Fold change vs veh, FUBP3 / RFU, TP53 / Fold change vs veh, TP53 / RFU, TNKS2 / Fold change vs veh, TNKS2 / RFU, ZFP14 / Fold change vs veh, ZFP14 / RFU, ACTR2 / Fold change vs veh, ACTR2 / RFU, PPP3R1 / Fold change vs veh, PPP3R1 / RFU, PIK3R1 / Fold change vs veh, PIK3R1 / RFU, HNRNPA1 / Fold change vs veh, HNRNPA1 / RFU, RNF170 / Fold change vs veh, RNF170 / RFU, ZNF28 / Fold change vs veh, ZNF28 / RFU, RNGTT / Fold change vs veh, RNGTT / RFU, OGT / Fold change vs veh, OGT / RFU, BRD1 / Fold change vs veh, BRD1 / RFU, MARS / Fold change vs veh, MARS / RFU, ZNF655 / Fold change vs veh, ZNF655 / RFU, FAHD1 / Fold change vs veh, FAHD1 / RFU, BDP1 / Fold change vs veh, BDP1 / RFU, LRRCC1 / Fold change vs veh, LRRCC1 / RFU, ARID1A / Fold change vs veh, ARID1A / RFU, ZNF146 / Fold change vs veh, ZNF146 / RFU, ZNF330 / Fold change vs veh, ZNF330 / RFU, GPN3 / Fold change vs veh, GPN3 / RFU, C9orf123 / Fold change vs veh, C9orf123 / RFU, N4BP2L2 / Fold change vs veh, N4BP2L2 / RFU, ARFIP1 / Fold change vs veh, ARFIP1 / RFU, FAM179B / Fold change vs veh, FAM179B / RFU, BCL10 / Fold change vs veh, BCL10 / RFU, UHRF1BP1L / Fold change vs veh, UHRF1BP1L / RFU, BET1 / Fold change vs veh, BET1 / RFU, CNOT2 / Fold change vs veh, CNOT2 / RFU, ZNF268 / Fold change vs veh, ZNF268 / Fold change vs veh, ZNF507 / RFU, DGCR2 / Fold change vs veh, DGCR2 / RFU, WDSUB1 / Fold change vs veh, WDSUB1 / Fold change vs veh, HSP90B1 /// MIR3652 / RFU, ADSS / Fold change vs veh, ADSS / RFU, GK / Fold change vs veh, GK / RFU, ZNF148 / Fold change vs veh, ZNF148 / RFU, TAF9 / Fold change vs veh, TAF9 / RFU, SLC1A5 / Fold change vs veh, SLC1A5 / RFU, SLMO2 / Fold change vs veh, SLMO2 / RFU, ABCC4 / Fold change vs veh, ABCC4 / RFU, LOC101060439 /// RAP1B / Fold change vs veh, LOC101060439 /// RAP1B / RFU, RFX7 / Fold change vs veh, RFX7 / RFU, GTPBP10 / Fold change vs veh, GTPBP10 / RFU, CNEP1R1 / Fold change vs veh, CNEP1R1 / RFU, BIVM-ERCC5 /// ERCC5 / Fold change vs veh, BIVM-ERCC5 /// ERCC5 / RFU, ILF3 / Fold change vs veh, ILF3 / RFU 11762660_at / Fold change /veh 11762660_at / RFU VCAN (11757783_s_at) / Fold change /veh VCAN (11757783_s_at) / RFU DDX43 (11728927_at) / Fold change /veh DDX43 (11728927_at) / RFU KRT8 (11758188_x_at) / Fold change /veh KRT8 (11758188_x_at) / RFU NKD1 (11759106_at) / Fold change /veh NKD1 (11759106_at) / RFU SRD5A1 (11742802_a_at) / Fold change /veh SRD5A1 (11742802_a_at) / RFU TPSAB1 /// TPSB2 (11721975_s_at) / Fold change /veh TPSAB1 /// TPSB2 (11721975_s_at) / RFU GSTM3 (11746129_a_at) / Fold change /veh GSTM3 (11746129_a_at) / RFU IL23R (11737362_x_at) / Fold change /veh IL23R (11737362_x_at) / RFU TMEM51 (11727254_a_at) / Fold change /veh TMEM51 (11727254_a_at) / RFU PIWIL2 (11732686_x_at) / Fold change /veh PIWIL2 (11732686_x_at) / RFU ORM1 (11744905_x_at) / Fold change /veh ORM1 (11744905_x_at) / RFU CCDC152 (11743942_at) / Fold change /veh CCDC152 (11743942_at) / RFU ECM1 (11717891_a_at) / Fold change /veh ECM1 (11717891_a_at) / RFU IL23R (11748794_a_at) / Fold change /veh IL23R (11748794_a_at) / RFU TNFAIP8L3 (11732012_x_at) / Fold change /veh TNFAIP8L3 (11732012_x_at) / RFU MBOAT4 (11741988_at) / Fold change /veh MBOAT4 (11741988_at) / RFU 11764193_at / Fold change /veh 11764193_at / RFU TMEM53 (11763286_at) / Fold change /veh TMEM53 (11763286_at) / RFU MAGEB2 (11727129_at) / Fold change /veh MAGEB2 (11727129_at) / RFU TMEM200A (11744735_a_at) / Fold change /veh TMEM200A (11744735_a_at) / RFU CCDC152 (11751479_a_at) / Fold change /veh CCDC152 (11751479_a_at) / RFU FAM211A (11726209_a_at) / Fold change /veh FAM211A (11726209_a_at) / RFU RGS16 (11746705_a_at) / Fold change /veh RGS16 (11746705_a_at) / RFU VCAN (11755009_s_at) / Fold change /veh VCAN (11755009_s_at) / RFU RHOB (11743442_s_at) / Fold change /veh RHOB (11743442_s_at) / RFU RGS16 (11720943_a_at) / Fold change /veh RGS16 (11720943_a_at) / RFU RGS16 (11720944_at) / Fold change /veh RGS16 (11720944_at) / RFU, VPS4B / Fold change vs veh, VPS4B / RFU, CREB1 / Fold change vs veh, CREB1 / RFU, DNAJC13 / Fold change vs veh, DNAJC13 / RFU, GNAQ / Fold change vs veh, GNAQ / RFU, CDK5R1 / Fold change vs veh, CDK5R1 / RFU, ZRANB3 / Fold change vs veh, ZRANB3 / RFU, CUL4A / Fold change vs veh, CUL4A / RFU, CCNY / Fold change vs veh, CCNY / RFU, UFL1 / Fold change vs veh, UFL1 / RFU, COG3 / Fold change vs veh, COG3 / RFU, DIAPH2 / Fold change vs veh, DIAPH2 / RFU, SKA2 / Fold change vs veh, SKA2 / RFU, AFF3 / Fold change vs veh, AFF3 / RFU, LMF1 / Fold change vs veh, LMF1 / RFU, IPO11 / Fold change vs veh, IPO11 / RFU, DFFB / Fold change vs veh, DFFB / RFU, FOXP1 / Fold change vs veh, FOXP1 / RFU, CARD8 / Fold change vs veh, CARD8 / RFU, STRN3 / Fold change vs veh, STRN3 / RFU, ADK / Fold change vs veh, ADK / RFU, RASSF2 / Fold change vs veh, RASSF2 / RFU, WIPF1 / Fold change vs veh, WIPF1 / RFU, LARP1B / Fold change vs veh, LARP1B / RFU, RASA1 / Fold change vs veh, RASA1 / RFU, RB1 / Fold change vs veh, RB1 / RFU, PPFIA1 / Fold change vs veh, PPFIA1 / RFU, MAT2A / Fold change vs veh, MAT2A / RFU, CCT5 / Fold change vs veh, CCT5 / RFU, WDR92 / Fold change vs veh, WDR92 / RFU, CUX1 / Fold change vs veh, CUX1 / RFU, TTC7A / Fold change vs veh, TTC7A / RFU, TMEM135 / Fold change vs veh, TMEM135 / RFU, DEPTOR / Fold change vs veh, DEPTOR / RFU, CPM / Fold change vs veh, CPM / RFU, DNAJB6 / Fold change vs veh, DNAJB6 / RFU, CACNA2D3 / Fold change vs veh, CACNA2D3 / RFU, DTX4 / Fold change vs veh, DTX4 / RFU, TFCP2 / Fold change vs veh, TFCP2 / RFU, GMCL1 /// GMCL1P1 / Fold change vs veh, GMCL1 /// GMCL1P1 / RFU, AEBP2 / Fold change vs veh, AEBP2 / RFU, SNHG1 /// SNORD22 /// SNORD25 /// SNORD26 /// SNORD27 /// SNORD28 /// SNORD29 /// SNORD31 / Fold change vs veh, SNHG1 /// SNORD22 /// SNORD25 /// SNORD26 /// SNORD27 /// SNORD28 /// SNORD29 /// SNORD31 / Fold change (Aza/veh), C12orf56 (ProbeSet 11735607_a_at) / Fold change (ACY-1035/veh), C12orf56 (ProbeSet 11735607_a_at) / Fold change (Aza/veh), FGFR1OP (ProbeSet 11751329_s_at) / Fold change (ACY-1035/veh), FGFR1OP (ProbeSet 11751329_s_at) / Fold change (Aza/veh), VPS36 (ProbeSet 11739960_a_at) / Fold change (ACY-1035/veh), VPS36 (ProbeSet 11739960_a_at) / RFU SYPL1 (11715823_x_at) / Fold change /veh SYPL1 (11715823_x_at) / RFU IGFBP7 (11715501_s_at) / Fold change /veh IGFBP7 (11715501_s_at) / RFU REEP3 (11722064_at) / Fold change /veh REEP3 (11722064_at) / RFU IGLL1 (11728026_x_at) / Fold change /veh IGLL1 (11728026_x_at): dose or concentration left out as unconfirmed. The settings on record: ProbeSet 11739263_x_at; LIST D.

The text below walks through data of paper PMC5218480 (PLoS ONE, 2017).

As for `Nc1ncn([C@@H]2O[C@H](CO)[C@@H](O)[C@H]2O)c(=O)n1` [azacitidine], the “RFU, VPS4B” value was 59.01 RFU.
